How the values were obtained:
[1] = tested on: Glomerella Lagenarium (Colletotrichum Lagenarium); assay: Glomerella lagenarium (Colletotrichum lagenarium) liquid culture / cucumber / preventative (anthracnose); format: cell-based; conditions: Colletotrichum orbiculare; 20 ppm in the applied formulation; liquid culture in PDB, 24° C., inhibition of growth measured photometrically 3 to 4 days after application, vs untreated; read-out: disease control
How it was run: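 Conidia from cryogenic storage were mixed into potato dextrose broth. This was added to compound diluted from DMSO into 0.025% Tween20, tested at 20 ppm. Plates were incubated in the dark at 24 °C and 96% relative humidity, and growth was read photometrically after 2–7 days as % activity versus untreated check.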

[2] = tested on: Puccinia recondita f. Sp. Tritici; assay: Puccinia recondita f. sp. tritici / wheat / leaf disc curative (brown rust); format: in vivo; conditions: foliar, 144 h, 200 ppm in the applied formulation, wheat leaf segments cv. Kanzler, applied 1 day after inoculation, assessed 6 to 8 days after application, vs untreated, read-out: disease control
How it was run: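 Spray application came one day after spore inoculation of Kanzler wheat leaf segments kept on agar. Conditions: 19° C, 75% relative humidity, dark before treatment and 12 h light/12 h dark after. Efficacy = % disease control compared with untreated, 6–8 days post-application.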

[3] = tested on: Puccinia recondita f. Sp. Tritici; assay: Puccinia recondita f. sp. tritici / wheat / leaf disc preventative (brown rust); format: in vivo; conditions: foliar, 168 h, 200 ppm in the applied formulation, wheat leaf segments cv. Kanzler, preventative, inoculated 1 day after application, assessed 7 to 9 days after application, vs untreated, read-out: disease control
How it was run: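 Wheat cv. Kanzler leaf segments on agar were sprayed with formulated compound in water, then inoculated with spores 1 day later. Incubated at 19° C, 75% rh, 12 h light/12 h dark; percent disease control versus untreated scored 7 to 9 days after application.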

[4] = tested on: Phakopsora pachyrhizi; assay: Phakopsora pachyrhizi / soybean / leaf disc preventative (Asian soybean rust); format: in vivo; conditions: foliar, 288 h, 200 ppm in the applied formulation, soybean leaf disks, inoculated one day after application, assessed 12 to 14 days after application, vs untreated, read-out: disease control
How it was run: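 Read-out is percent disease control relative to untreated check discs, assessed once untreated discs show adequate disease, 12 to 14 days after application. Compounds, tested at 200 ppm in the applied formulation, are sprayed onto soybean leaf discs one day before inoculation with a spore suspension.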

melting point	Compound	inhibition of growth at 20 ppm [1]	pest or weed control at 200 ppm [2]	pest or weed control at 200 ppm [3]	pest or weed control at 200 ppm [4]
125 to 135 °C	O=C(c1cnn(Cc2ccc(-c3noc(C(F)(F)F)n3)cc2)c1)N1CCOCC1 [Compound 1.261, morpholino-[1-[[4-[5-(trifluoromethyl)-1,2,4-oxadiazol-3-yl]phenyl]methyl]pyrazol-4-yl]methanone]	≥ 80%	≥ 80%	≥ 80%	≥ 80%
112.4 to 116.6 °C	FC(F)(F)c1nc(-c2ccc(Cn3nc4ccccc4n3)cc2)no1 [Compound 1.34, 3-[4-(benzotriazol-2-ylmethyl)phenyl]-5-(trifluoromethyl)-1,2,4-oxadiazole]	≥ 80%	≥ 80%	≥ 80%	≥ 80%
160.2 to 162.4 °C	FC(F)(F)c1nc(-c2ccc(Cn3cc(-c4ccccn4)nn3)cc2)no1 [Compound 1.22, 3-[4-[[4-(2-pyridyl)triazol-1-yl]methyl]phenyl]-5-(trifluoromethyl)-1,2,4-oxadiazole]	≥ 80%	≥ 80%	≥ 80%	≥ 80%
113.9 to 115.7 °C	CC(C)Cc1cn(Cc2ccc(-c3noc(C(F)(F)F)n3)cc2)nn1 [Compound 1.26, 3-[4-[(4-isobutyltriazol-1-yl)methyl]phenyl]-5-(trifluoromethyl)-1,2,4-oxadiazole]	≥ 80%	≥ 80%	≥ 80%	≥ 80%
142.3 to 143.2 °C	FC(F)(F)c1nc(-c2ccc(Cn3nnc4ccccc43)cc2)no1 [Compound 1.35, 3-[4-(benzotriazol-1-ylmethyl)phenyl]-5-(trifluoromethyl)-1,2,4-oxadiazole]	≥ 80%	≥ 80%	≥ 80%	≥ 80%
60 to 70 °C	CN(C)CCOC(=O)c1cnn(Cc2ccc(-c3noc(C(F)(F)F)n3)cc2)c1 [Compound 1.265, 2-(dimethylamino)ethyl 1-[[4-[5-(trifluoromethyl)-1,2,4-oxadiazol-3-yl]phenyl]methyl]pyrazole-4-carboxylate]	≥ 80%	≥ 80%	≥ 80%	≥ 80%
159.8 to 163.1 °C	FC(F)(F)c1nc(-c2ccc(Cn3cc(-c4cccnc4)nn3)cc2)no1 [Compound 1.23, 3-[4-[[4-(3-pyridyl)triazol-1-yl]methyl]phenyl]-5-(trifluoromethyl)-1,2,4-oxadiazole]	≥ 80%	≥ 80%	≥ 80%	≥ 80%
103 to 107 °C	COC(=O)c1cnnn1Cc1ccc(-c2noc(C(F)(F)F)n2)cc1 [Compound 1.279, methyl 3-[[4-[5-(trifluoromethyl)-1,2,4-oxadiazol-3-yl]phenyl]methyl]triazole-4-carboxylate]	≥ 80%	≥ 80%	≥ 80%	≥ 80%
99.4 to 102 °C	Cc1nn(Cc2ccc(-c3noc(C(F)(F)F)n3)cc2)c(C)c1C [Compound 1.146, 5-(trifluoromethyl)-3-[4-[(3,4,5-trimethylpyrazol-1-yl)methyl]phenyl]-1,2,4-oxadiazole]	≥ 80%	≥ 80%	≥ 80%	≥ 80%
57 to 63 °C	C#CCON=Cc1cnn(Cc2ccc(-c3noc(C(F)(F)F)n3)cc2)c1 [Compound 1.290, N-prop-2-ynoxy-1-[1-[[4-[5-(trifluoromethyl)-1,2,4-oxadiazol-3-yl]phenyl]methyl]pyrazol-4-yl]methanimine]	≥ 80%	≥ 80%	≥ 80%	≥ 80%
105.4 to 107.9 °C	FC(F)(F)c1nc(-c2ccc(Cn3nccn3)cc2)no1 [Compound 1.33, 3-[4-(triazol-2-ylmethyl)phenyl]-5-(trifluoromethyl)-1,2,4-oxadiazole]	≥ 80%	≥ 80%	≥ 80%	≥ 80%
91 to 96 °C	O=Cc1cnn(Cc2ccc(-c3noc(C(F)(F)F)n3)cc2)c1 [Compound 1.273, 1-[[4-[5-(trifluoromethyl)-1,2,4-oxadiazol-3-yl]phenyl]methyl]pyrazole-4-carbaldehyde]	≥ 80%	≥ 80%	≥ 80%	≥ 80%
193 to 195 °C	CCNC(=O)c1cn(Cc2ccc(-c3noc(C(F)(F)F)n3)cc2)nn1 [Compound 1.274, N-ethyl-1-[[4-(5-(trifluoromethyl)-1,2,4-oxadiazol-3-yl]phenyl]methyl]triazole-4-carboxamide]	≥ 80%	≥ 80%	≥ 80%	≥ 80%
204 to 206 °C	O=C(Nc1ccncc1)c1cn(Cc2ccc(-c3noc(C(F)(F)F)n3)cc2)nn1 [Compound 1.283, N-(4-pyridyl)-1-[[4-[5-(trifluoromethyl)-1,2,4-oxadiazol-3-yl]phenyl]methyl]triazole-4-carboxamide]	≥ 80%	≥ 80%	≥ 80%	≥ 80%
52 to 63 °C	Fc1cc(-c2noc(C(F)(F)F)n2)ccc1Cn1cncn1 [Compound 1.101, 3-[3-fluoro-4-(1,2,4-triazol-1-ylmethyl)phenyl]-5-(trifluoromethyl)-1,2,4-oxadiazole]	≥ 80%	≥ 80%	≥ 80%	≥ 80%
157.6 to 161.9 °C	CC(C)(NC(=O)c1ccccc1)c1cn(Cc2ccc(-c3noc(C(F)(F)F)n3)cc2)nn1 [Compound 1.30, N-[1-methyl-1-[1-[[4-[5-(trifluoromethyl)-1,2,4-oxadiazol-3-yl]phenyl]methyl]triazol-4-yl]ethyl]benzamide]	≥ 80%	≥ 80%	≥ 80%	≥ 80%
168 to 170 °C	CN(C)C(=O)c1cn(Cc2ccc(-c3noc(C(F)(F)F)n3)cc2)nn1 [Compound 1.280, N,N-dimethyl-1-[[4-[5-(trifluoromethyl)-1,2,4-oxadiazol-3-yl]phenyl]methyl]triazole-4-carboxamide]	≥ 80%	≥ 80%	≥ 80%	≥ 80%
63 to 71 °C	FC(F)(F)c1nc(-c2ccc(Cn3cncn3)c(Cl)c2)no1 [Compound 1.99, 3-[3-chloro-4-(1,2,4-triazol-1-ylmethyl)phenyl]-5-(trifluoromethyl)-1,2,4-oxadiazole]	≥ 80%	≥ 80%	≥ 80%	≥ 80%
198 to 200 °C	CONC(=O)c1cn(Cc2ccc(-c3noc(C(F)(F)F)n3)cc2)nn1 [Compound 1.277, N-methoxy-1-[[4-[5-(trifluoromethyl)-1,2,4-oxadiazol-3-yl]phenyl]methyl]triazole-4-carboxamide]	≥ 80%	≥ 80%	≥ 80%	≥ 80%
111.1 to 114.9 °C	CS(=O)(=O)N1CCN(Cc2ccc(-c3noc(C(F)(F)F)n3)cc2)CC1 [Compound 1.305, 3-[4-[(4-methylsulfonyl-piperazin-1-yl)methyl]phenyl]-5-(trifluoromethyl)-1,2,4-oxadiazole]	≥ 80%	≥ 80%	≥ 80%	≥ 80%

Compound	melting point	inhibition of growth at 20 ppm [1]	pest or weed control at 200 ppm [2]	pest or weed control at 200 ppm [3]	pest or weed control at 200 ppm [4]
C[Si](C)(C)c1cn(Cc2ccc(-c3noc(C(F)(F)F)n3)cc2)nn1 [Compound 1.25, trimethyl-[1-[[4-[5-(trifluoromethyl)-1,2,4-oxadiazol-3-yl]phenyl]methyl]triazol-4-yl]silane]	87.8 to 89.5 °C	≥ 80%	≥ 80%	≥ 80%	≥ 80%

— patent publication US10798941B2, “Microbiocidal oxadiazole derivatives” (SYNGENTA PARTICIPATIONS AG, priority 2016, dated 2020)
